Values of other authors as cited in US20210299068A1, “ANTIMICROBIAL COMPOSITIONS COMPRISING CHLORHEXIDINE” (3M INNOVATIVE PROPERTIES COMPANY, priority 2018, published 2021).

Conditions: at neutral pH

- Formation constant for the complex with calcium: 10^6
Structure (SMILES): O=C([O-])CN(CCO)CCN(CC(=O)[O-])CC(=O)[O-].[Na+].[Na+].[Na+] [HEDTA.Na3, N-(2-Hydroxyethyl)ethylenediaminetriacetic acid trisodium salt]
